Results from US10072011B2, “Substituted bridged urea analogs as sirtuin modulators” (GlaxoSmithKline Intellectual Property (No.2) Limited, priority 2014, dated 2018).
Read-outs that look alike come from different tables or passages of the source.

Target: T1, SIRT1 (Homo sapiens, UniProt Q96EB6)
T1 sequence (Q96EB6 1-747): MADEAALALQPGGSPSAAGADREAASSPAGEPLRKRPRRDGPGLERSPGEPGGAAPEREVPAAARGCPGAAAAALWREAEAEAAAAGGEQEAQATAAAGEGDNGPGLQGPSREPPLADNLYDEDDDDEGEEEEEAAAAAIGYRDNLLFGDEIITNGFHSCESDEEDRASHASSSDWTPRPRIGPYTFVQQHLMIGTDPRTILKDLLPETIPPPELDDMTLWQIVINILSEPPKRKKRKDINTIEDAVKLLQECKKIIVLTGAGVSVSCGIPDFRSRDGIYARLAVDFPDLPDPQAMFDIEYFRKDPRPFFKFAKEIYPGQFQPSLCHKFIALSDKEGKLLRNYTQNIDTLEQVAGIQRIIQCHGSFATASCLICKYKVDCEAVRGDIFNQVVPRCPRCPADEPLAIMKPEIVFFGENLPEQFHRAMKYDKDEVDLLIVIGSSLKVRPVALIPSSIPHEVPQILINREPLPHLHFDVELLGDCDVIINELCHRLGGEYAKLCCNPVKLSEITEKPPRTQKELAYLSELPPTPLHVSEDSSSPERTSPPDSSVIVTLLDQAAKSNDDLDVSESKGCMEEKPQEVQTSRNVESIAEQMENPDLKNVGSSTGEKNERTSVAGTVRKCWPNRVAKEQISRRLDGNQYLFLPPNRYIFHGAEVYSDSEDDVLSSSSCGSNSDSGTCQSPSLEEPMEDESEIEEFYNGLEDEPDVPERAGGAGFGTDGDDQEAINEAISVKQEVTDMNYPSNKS
Experiment: Trp mass spectrometry assay of SIRT1 activation (Ac-R-H-K-K(Ac)-W-NH2 peptide)
Format: biochemical
Conditions: for Emax: 25 min, read-out: TRP MAX RESP (percent maximum fold activation)
Procedure, shortened: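 Mass spectrometry read-out (OAADPR formed, or deacetylated Trp peptide) after a 25 min NAD-dependent deacetylation by E. coli-expressed His-SIRT1, stopped with formic acid.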

[1] = Trp peptide 0.5 μM, 120 μM βNAD+, 10 nM SIRT1, 25 min at 25° C., relative to control (100%)
[2] = Trp peptide 0.5 μM, 120 μM βNAD+, 10 nM SIRT1, 25 min at 25° C.

| Structure (SMILES) | Emax [1] | TRP Activity (EC1.5, concentration of test compound that results in 150% activation of SIRT1) [2] | Emax |
| --- | --- | --- | --- |
| O=C(NC1CC1)c1ccc2c(n1)N(C(=O)Nc1ccc(Cl)cn1)[C@H]1CCN2C1 [Example 67, (4S)—N5-(5-chloropyridin-2-yl)-N7-cyclopropyl-3,4-dihydro-1,4-methanopyrido[2,3-b][1,4]diazepine-5,7(2H)-dicarboxamide] | > 150% | B (EC1.5 1-25 μM) |  |
| C[C@@H](NC(=O)c1ccc2c(n1)N(C(=O)Nc1cc[nH]n1)[C@H]1CCN2C1)C(F)(F)F [Example 68, (4S)—N5-(1H-pyrazol-3-yl)-N7-((R)-1,1,1-trifluoropropan-2-yl)-3,4-dihydro-1,4-methanopyrido[2,3-b][1,4]diazepine-5,7(2H)-dicarboxamide] | > 150% | A (EC1.5<1 μM) |  |
| O=C(NCC(F)F)c1ccc2c(n1)N(C(=O)Nc1ccc(F)cn1)[C@H]1CCN2C1 [Example 69, (4S)—N7-(2,2-difluoroethyl)-N5-(5-fluoropyridin-2-yl)-3,4-dihydro-1,4-methanopyrido[2,3-b][1,4]diazepine-5,7(2H)-dicarboxamide] |  | A (EC1.5<1 μM) | > 150% |
| O=C(NCC(F)(F)F)c1ccc2c(n1)N(C(=O)Nc1ccc(F)cn1)[C@H]1CCN2C1 [Example 70, (4S)—N5-(5-fluoropyridin-2-yl)-N7-(2,2,2-trifluoroethyl)-3,4-dihydro-1,4-methanopyrido[2,3-b][1,4]diazepine-5,7(2H)-dicarboxamide] | > 150% | A (EC1.5<1 μM) |  |
| O=C(NC[C@@H](O)C(F)(F)F)c1ccc2c(n1)N(C(=O)Nc1ccc(F)cn1)[C@H]1CCN2C1 [Example 71, (4S)—N5-(5-fluoropyridin-2-yl)-N7-((R)-3,3,3-trifluoro-2-hydroxypropyl)-3,4-dihydro-1,4-methanopyrido[2,3-b][1,4]diazepine-5,7(2H)-dicarboxamide] | > 150% | A (EC1.5<1 μM) |  |
| CC(C)(C)CNC(=O)c1ccc2c(n1)N(C(=O)Nc1ccc(F)cn1)[C@H]1CCN2C1 [Example 73, (4S)—N5-(5-fluoropyridin-2-yl)-N7-neopentyl-3,4-dihydro-1,4-methanopyrido[2,3-b][1,4]diazepine-5,7(2H)-dicarboxamide] | > 150% | A (EC1.5<1 μM) |  |
| C[C@@H](NC(=O)c1ccc2c(n1)N(C(=O)Nc1cc(OC[C@H](O)CO)ccn1)[C@H]1CCN2C1)C(F)(F)F [Example 74, (4S)—N5-(4-((R)-2,3-dihydroxypropoxy)pyridin-2-yl)-N7-((R)-1,1,1-trifluoropropan-2-yl)-3,4-dihydro-1,4-methanopyrido[2,3-b][1,4]diazepine-5,7(2H)-dicarboxamide] | > 150% |  |  |
| C[C@@H](NC(=O)c1ccc2c(n1)N(C(=O)Nc1ncco1)[C@H]1CCN2C1)C(F)(F)F [Example 75, (4S)—N5-(oxazol-2-yl)-N7-((R)-1,1,1-trifluoropropan-2-yl)-3,4-dihydro-1,4-methanopyrido[2,3-b][1,4]diazepine-5,7(2H)-dicarboxamide] | > 150% | A (EC1.5<1 μM) |  |
| Cc1ccc2c(NC(=O)N3c4nc(C(=O)N[C@H](C)C(F)(F)F)ccc4N4CC[C@H]3C4)n[nH]c2n1 [Example 76, (4S)—N5-(6-methyl-1H-pyrazolo[3,4-b]pyridin-3-yl)-N7-((R)-1,1,1-trifluoropropan-2-yl)-3,4-dihydro-1,4-methanopyrido[2,3-b][1,4]diazepine-5,7(2H)-dicarboxamide] | > 150% | A (EC1.5<1 μM) |  |
| C[C@@H](NC(=O)c1ccc2c(n1)N(C(=O)Nc1cccnn1)[C@H]1CCN2C1)C(F)(F)F [Example 77, (4S)—N5-(pyridazin-3-yl)-N7-((R)-1,1,1-trifluoropropan-2-yl)-3,4-dihydro-1,4-methanopyrido[2,3-b][1,4]diazepine-5,7(2H)-dicarboxamide] | > 150% | A (EC1.5<1 μM) |  |
| O=C(NC1CC1)c1ccc2c(n1)N(C(=O)Nc1cc(-c3cnco3)ccn1)[C@H]1CCN2C1 [Example 78, (4S)—N7-cyclopropyl-N5-(4-(oxazol-5-yl)pyridin-2-yl)-3,4-dihydro-1,4-methanopyrido[2,3-b][1,4]diazepine-5,7(2H)-dicarboxamide] | > 150% | A (EC1.5<1 μM) |  |
| O=C(NCCC(F)(F)F)c1ccc2c(n1)N(C(=O)Nc1ccc(F)cn1)[C@H]1CCN2C1 [Example 79, (4S)—N5-(5-fluoropyridin-2-yl)-N7-(3,3,3-trifluoropropyl)-3,4-dihydro-1,4-methanopyrido[2,3-b][1,4]diazepine-5,7(2H)-dicarboxamide] | > 150% | A (EC1.5<1 μM) |  |
| CC(C)[C@@H](C)NC(=O)c1ccc2c(n1)N(C(=O)Nc1ccc(F)cn1)[C@H]1CCN2C1 [Example 80, (4S)—N5-(5-fluoropyridin-2-yl)-N7-((R)-3-methylbutan-2-yl)-3,4-dihydro-1,4-methanopyrido[2,3-b][1,4]diazepine-5,7(2H)-dicarboxamide] | > 150% | A (EC1.5<1 μM) |  |
| O=C(NC[C@H](O)C(F)(F)F)c1ccc2c(n1)N(C(=O)Nc1ccc(F)cn1)[C@H]1CCN2C1 [Example 81, (4S)—N5-(5-fluoropyridin-2-yl)-N7-((S)-3,3,3-trifluoro-2-hydroxypropyl)-3,4-dihydro-1,4-methanopyrido[2,3-b][1,4]diazepine-5,7(2H)-dicarboxamide] | > 150% | A (EC1.5<1 μM) |  |
| O=C(N[C@H](CO)C(F)(F)F)c1ccc2c(n1)N(C(=O)Nc1ccc(F)cn1)[C@H]1CCN2C1 [Example 82, (4S)—N5-(5-fluoropyridin-2-yl)-N7-((R)-1,1,1-trifluoro-3-hydroxypropan-2-yl)-3,4-dihydro-1,4-methanopyrido[2,3-b][1,4]diazepine-5,7(2H)-dicarboxamide] | > 150% | A (EC1.5<1 μM) |  |
| O=C(NCC(F)(F)F)c1ccc2c(n1)N(C(=O)Nc1cc(-c3cnco3)ccn1)[C@H]1CCN2C1 [Example 83, (4S)—N5-(4-(oxazol-5-yl)pyridin-2-yl)-N7-(2,2,2-trifluoroethyl)-3,4-dihydro-1,4-methanopyrido[2,3-b][1,4]diazepine-5,7(2H)-dicarboxamide] | > 150% | A (EC1.5<1 μM) |  |
| Cc1nn(C)cc1-c1ccnc(NC(=O)N2c3nc(C(=O)N[C@H](C)C(F)(F)F)ccc3N3CC[C@H]2C3)c1 [Example 84, (4S)—N5-(4-(1,3-dimethyl-1H-pyrazol-4-yl)pyridin-2-yl)-N7-((R)-1,1,1-trifluoropropan-2-yl)-3,4-dihydro-1,4-methanopyrido[2,3-b][1,4]diazepine-5,7(2H)-dicarboxamide] | > 150% | A (EC1.5<1 μM) |  |
| C[C@@H](NC(=O)c1ccc2c(n1)N(C(=O)Nc1cc(-c3ccn(C)n3)ccn1)[C@H]1CCN2C1)C(F)(F)F [Example 85, (4S)—N5-(4-(1-methyl-1H-pyrazol-3-yl)pyridin-2-yl)-N7-((R)-1,1,1-trifluoropropan-2-yl)-3,4-dihydro-1,4-methanopyrido[2,3-b][1,4]diazepine-5,7(2H)-dicarboxamide] | > 150% | A (EC1.5<1 μM) |  |
| C[C@@H](NC(=O)c1ccc2c(n1)N(C(=O)Nc1cc(-c3cncn3C)ccn1)[C@H]1CCN2C1)C(F)(F)F [Example 86, (4S)—N5-(4-(1-methyl-1H-imidazol-5-yl)pyridin-2-yl)-N7-((R)-1,1,1-trifluoropropan-2-yl)-3,4-dihydro-1,4-methanopyrido[2,3-b][1,4]diazepine-5,7(2H)-dicarboxamide] | > 150% | A (EC1.5<1 μM) |  |
| O=C(N[C@H](C1CC1)C(F)(F)F)c1ccc2c(n1)N(C(=O)Nc1cc(OC[C@H](O)CO)ccn1)[C@H]1CCN2C1 [Example 88, (4S)—N7-((R)-1-cyclopropyl-2,2,2-trifluoroethyl)-N5-(4-((R)-2,3-dihydroxypropoxy)pyridin-2-yl)-3,4-dihydro-1,4-methanopyrido[2,3-b][1,4]diazepine-5,7(2H)-dicarboxamide] | > 150% | A (EC1.5<1 μM) |  |
